In article PMC11984905, “Chiral Switch of Gadopiclenol: New Standards in MRI Probes” (Advanced Science, 2025):

Assay: Stability, protonation and conditional stability constants (pGd) of Gd(III)-complexes (out-of-cell pH-potentiometry, 1H NMR relaxometry, competition with AAZTA)
Format: physicochemical
Settings: for conditional stability higher than that of the racemic counterparts: logK^c GdL and pGd; for conditional stability higher than that of the racemic counterparts / pGd / logK^cGdL and pGd higher than that of the parent [Gd(PCTA)]: pH 7.4; for logK^c GdL: conditional stability constant at pH 7.4; for *logKGd(H2L): diprotonated out-of-cage intermediate; for pGd: pGd = -log[Gd^3+]free, [Gd^3+]tot = 1 µM, [L]tot = 10 µM; for logKGdLH-1: deprotonation of inner-sphere water; for stability constant of Gd(III)-complex higher than that of the racemic complex: vs [Gd(rac-L1)]3- and [Gd(rac-L2)]
Method: The protonation constants of ligands, the stability and protonation constants of Ca(II)‐ and Zn(II)‐complexes formed with rac‐L1, ent‐L1, rac‐L2, and ent‐L2 ligands were determined by pH‐potentiometric titration. The metal‐to‐ligand concentration ratio was 1:1 (the concentration of the ligand was generally 0.002 M). The protonation constants of the Cu(II)‐ and Gd(III)‐complexes were determined using pH‐potentiometry by titrating the pre‐prepared complexes from pH 2.0 to 12.0 with 0.2 M NaOH. The stability constants of the Gd(III)‐complexes with rac‐L1 and ent‐L1 ligands were determined by the “out‐of‐cell” technique because of their slow formation reaction. The pH range of the complexation equilibria and the time needed to reach the equilibria were determined by relaxometry. Eight–eight Gd(III) – rac‐L1 and Gd(III) – ent‐L1 samples were prepared, with pH values in the range of 1.7–3.0 at equilibrium ([Gd^3+] = [L] = 0.002 M). The samples were kept at 25 °C for 6 weeks to reach equilibrium. For the calculation of the stability constants of the [Gd(rac‐L1)]^3− and [Gd(ent‐L1)]^3− complexes, besides the protonation constants of ligands and the Gd(III) complexes, the stability constants of the di‐protonated [^*Gd(H2 rac‐L1)]^− and [^*Gd(H2 […])]^− out‐of‐cage complexes (considered as intermediates) was also used as fixed values, which were calculated from the pH‐potentiometric titration curve of the Gd(III) – rac‐L1 and Gd(III) – ent‐L1 system obtained in the pH range of 1.7–7.0.
For the pH measurements and titrations, the Metrohm 888 Titrando titration workstation Metrohm‐6.0234.110 combined electrode was used. Equilibrium measurements were carried out at a constant ionic strength (0.15 M NaCl) in 6 mL samples at 25 °C. The solutions were stirred, and N2 was bubbled through them. The titrations were made in the pH range 1.7–12.0. KH‐Phthalate (pH 4.005) and borax (pH 9.177) buffers were used to calibrate the pH meter. For the calculation of [H^+] from the measured pH values, the method proposed by Irving et al. was used as follows.^[ [46] ^] A 0.01M HCl solution was titrated with standardized NaOH solution at 0.15 M NaCl ionic strength. The differences (A) between the measured (pHread) and calculated pH (‐log[H^+]) values were used to obtain the equilibrium H^+ concentration from the pH values measured in the titration experiments (A = 0.02). For the equilibrium calculations, the stoichiometric water ionic product (pK w) was also needed in order to calculate [OH^−] values under basic conditions. The VNaOH – pHread data pairs of the HCl – NaOH titration obtained in the pH range 10.5–12.0 were used to calculate the pK w value (pK w = 13.83).
The stability constant of Gd(III)‐complexes with rac‐L2 and ent‐L2 ligands were determined by the measurement of the proton relaxation rates (r 1) studying the competition reaction of rac‐L2 and ent‐L2 ligands with AAZTA for Gd(III) ion at pH = 4.0 in 0.15 M NaCl solution. In these experiments, the concentration of Gd^3+, rac‐L2, and ent‐L2 ligands was 2.0 mM, while that of the AAZTA was varied between 1.0 and 6.0 mM (5 × 1.5 mL samples). The pH was adjusted to pH 4.0 by stepwise addition of concentrated NaOH or HCl solutions. The samples were kept at 70 °C for a month and then at 25°C for two months in order to attain the equilibrium (the time needed to reach the equilibria was determined by ^1H‐NMR relaxometry). ^1H‐NMR relaxometric measurement of Gd(III) – rac‐L2 – AAZTA and Gd(III) – ent‐L2 – AAZTA systems were performed with a Bruker Avance III 400 (9.4 T) equipped with BB inverse z gradient probe (5 mm). […]

| SMILES | conditional stability higher than that of the racemic counterparts | logK GdL (0.15 M NaCl, 25 °C) | logKGdH2L (0.15 M NaCl, 25 °C) | logKGdH3L (0.15 M NaCl, 25 °C) | logKGdH4L (0.15 M NaCl, 25 °C) | logKGdHL (0.15 M NaCl, 25 °C) | logK^c GdL (0.15 M NaCl) | *logKGd(H2L) (0.15 M NaCl, 25 °C) | pGd (0.15 M NaCl) | logKGdLH-1 (0.15 M NaCl, 25 °C) | logK^cGdL and pGd higher than that of the parent [Gd(PCTA)] | stability constant of Gd(III)-complex higher than that of the racemic complex [logK unit] |
| --- | --- | --- | --- | --- | --- | --- | --- | --- | --- | --- | --- | --- |
| O=C([O-])CCC(C(=O)[O-])N1CCN(C(CCC(=O)[O-])C(=O)[O-])Cc2cccc(n2)CN(C(CCC(=O)[O-])C(=O)[O-])CC1.[Gd+3] (racemic) [[Gd(ent‐L1)]^3−] | 0.6 – 1.5 logK unit | – | – | – | – | – | – | – | – | – | – | – |
| O=C(O)CCC(C(=O)O)N1CCN(C(CCC(=O)O)C(=O)O)Cc2cccc(n2)CN(C(CCC(=O)O)C(=O)O)CC1 (racemic) [rac‐L1, 2,2’,2’’-[3,6,9,15-tetraazabicyclo[9.3.1]pentadeca-1(15),11,13-triene-3,6,9-triyl]tripentanedioic acid] | – | 18.65(5) | 4.43 (3) | 4.35 (3) | 2.25 (3) | 5.32 (2) | 15.34 | 3.58 (2) | 16.33 | – | – | – |
| O=C(O)CCC(C(=O)O)N1CCN(C(CCC(=O)O)C(=O)O)Cc2cccc(n2)CN(C(CCC(=O)O)C(=O)O)CC1 (stereo not drawn) [ent‐L1] | – | 20.17 (9) | 4.52 (1) | 4.15 (2) | – | 5.28 (1) | 16.85 | 4.00 (3) | 17.80 | – | 0.6 – 1.2 logK unit | 1.5 |

Continued, values first:

| conditional stability higher than that of the racemic counterparts | logK GdL (0.15 M NaCl, 25 °C) | logKGdH2L (0.15 M NaCl, 25 °C) | logKGdH3L (0.15 M NaCl, 25 °C) | logKGdH4L (0.15 M NaCl, 25 °C) | logKGdHL (0.15 M NaCl, 25 °C) | logK^c GdL (0.15 M NaCl) | *logKGd(H2L) (0.15 M NaCl, 25 °C) | pGd (0.15 M NaCl) | logKGdLH-1 (0.15 M NaCl, 25 °C) | logK^cGdL and pGd higher than that of the parent [Gd(PCTA)] | stability constant of Gd(III)-complex higher than that of the racemic complex [logK unit] | SMILES |
| --- | --- | --- | --- | --- | --- | --- | --- | --- | --- | --- | --- | --- |
| – | 18.96 (7) | – | – | – | – | 16.76 | – | 17.70 | 11.15 (4) | 0.6 – 1.2 logK unit | – | O=C(CCC(C(=O)O)N1CCN(C(CCC(=O)NCC(O)CO)C(=O)O)Cc2cccc(n2)CN(C(CCC(=O)NCC(O)CO)C(=O)O)CC1)NCC(O)CO (racemic) [rac‐L2] |
| 0.6 – 1.5 logK unit | – | – | – | – | – | – | – | – | – | – | – | O=C(CCC(C(=O)[O-])N1CCN(C(CCC(=O)NCC(O)CO)C(=O)[O-])Cc2cccc(n2)CN(C(CCC(=O)NCC(O)CO)C(=O)[O-])CC1)NCC(O)CO.[Gd+3] (stereo not drawn) [[Gd(ent‐L2)]] |
| – | 20.36 (3) | – | – | – | – | 17.31 | – | 18.27 | 11.66 (1) | 0.6 – 1.2 logK unit | 1.5 | O=C(CCC(C(=O)O)N1CCN(C(CCC(=O)NCC(O)CO)C(=O)O)Cc2cccc(n2)CN(C(CCC(=O)NCC(O)CO)C(=O)O)CC1)NCC(O)CO (stereo not drawn) [ent‐L2] |
